Assay results: patent US11959916B2, “Method, system, and program for supplying immunodynamics-related information” (priority 2017, dated 2024)

Test system: eosinophil
Assay: Eosinophil count in peripheral blood of the prostate cancer subject
Conditions: Claritin in addition to Allegra from July 1, 2016

CC(C)(C(=O)O)c1ccc(C(O)CCCN2CCC(C(O)(c3ccccc3)c3ccccc3)CC2)cc1 (stereo not shown) [Allegra, fexofenadine]
eosinophil count in peripheral blood, change in words: started to decrease
